Laboratory results as given in PubChem BioAssay (NCI).
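Exposure lasted 48 hours, with cells grown in 96-well plates and compounds tested at five concentrations. GI50 marks 50% less growth. TGI: concentration producing complete growth inhibition.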

What was measured:
Assay in all cases: growth of human tumour cells (NCI), 48 h; in the data active = GI50 below about 0.43 µM; inactive = the rest
RPMI-8226 leukemia = test system: RPMI-8226 leukemia
NCI-H460 lung = test system: NCI-H460 lung
NCI-H23 lung = test system: NCI-H23 lung
OVCAR-5 ovarian = test system: OVCAR-5 ovarian
OVCAR-4 ovarian = test system: OVCAR-4 ovarian
KM12 colon = test system: KM12 colon
SK-MEL-2 melanoma = test system: SK-MEL-2 melanoma
NCI/ADR-RES ovarian = test system: NCI/ADR-RES ovarian
SF-268 CNS = test system: SF-268 CNS
BT-549 breast = test system: BT-549 breast
ACHN renal = test system: ACHN renal
SK-OV-3 ovarian = test system: SK-OV-3 ovarian
786-0 renal = test system: 786-0 renal
HL-60(TB) leukemia = test system: HL-60(TB) leukemia
SF-539 CNS = test system: SF-539 CNS
PC-3 prostate = test system: PC-3 prostate
HOP-92 NSCLC = test system: HOP-92 NSCLC
CCRF-CEM leukemia = test system: CCRF-CEM leukemia
MALME-3M melanoma = test system: MALME-3M melanoma
SNB-75 CNS = test system: SNB-75 CNS
A549 NSCLC = test system: A549 NSCLC
T-47D breast = test system: T-47D breast
SN12C renal = test system: SN12C renal
SF-295 CNS = test system: SF-295 CNS
SK-MEL-28 melanoma = test system: SK-MEL-28 melanoma
SNB-19 CNS = test system: SNB-19 CNS
SW-620 colon = test system: SW-620 colon
OVCAR-3 ovarian = test system: OVCAR-3 ovarian
CAKI-1 renal = test system: CAKI-1 renal
MCF7 breast = test system: MCF7 breast
UACC-257 melanoma = test system: UACC-257 melanoma
UO-31 renal = test system: UO-31 renal
TK-10 renal = test system: TK-10 renal
SR leukemia = test system: SR leukemia
COLO 205 colon = test system: COLO 205 colon
HCT-15 colon = test system: HCT-15 colon
HCC-2998 colon = test system: HCC-2998 colon
NCI-H226 lung = test system: NCI-H226 lung
MOLT-4 leukemia = test system: MOLT-4 leukemia
UACC-62 melanoma = test system: UACC-62 melanoma
HT29 colon = test system: HT29 colon
MDA-MB-435 = test system: MDA-MB-435
OVCAR-8 ovarian = test system: OVCAR-8 ovarian
SK-MEL-5 melanoma = test system: SK-MEL-5 melanoma
K-562 leukemia = test system: K-562 leukemia
A498 renal = test system: A498 renal
MDA-MB-231 breast = test system: MDA-MB-231 breast
M14 melanoma = test system: M14 melanoma
U251 CNS = test system: U251 CNS
HOP-62 NSCLC = test system: HOP-62 NSCLC
HS 578T breast = test system: HS 578T breast
LOX IMVI melanoma = test system: LOX IMVI melanoma
HCT-116 colon = test system: HCT-116 colon
RXF 393 renal = test system: RXF 393 renal
NCI-H522 lung = test system: NCI-H522 lung
DU-145 prostate = test system: DU-145 prostate
IGROV1 ovarian = test system: IGROV1 ovarian

Cn1ncnc1[C@H]1c2n[nH]c(=O)c3cc(F)cc(c23)N[C@@H]1c1ccc(F)cc1
active: GI50 (NCI-H460 lung) 35.4 nM | GI50 (SR leukemia) 41.7 nM
inactive: GI50 (RPMI-8226 leukemia) > 100 µM | GI50 (NCI-H23 lung) > 34.5 µM | GI50 (OVCAR-5 ovarian) > 100 µM | GI50 (OVCAR-4 ovarian) 14.6 µM | GI50 (KM12 colon) > 100 µM | GI50 (SK-MEL-2 melanoma) > 100 µM | GI50 (NCI/ADR-RES ovarian) > 100 µM | GI50 (SF-268 CNS) 3.07 µM | GI50 (BT-549 breast) > 87.1 µM | GI50 (ACHN renal) 54.3 µM | GI50 (SK-OV-3 ovarian) > 100 µM | GI50 (786-0 renal) > 100 µM | GI50 (HL-60(TB) leukemia) 10.3 µM | GI50 (PC-3 prostate) > 100 µM | GI50 (CCRF-CEM leukemia) 1270 nM | GI50 (MALME-3M melanoma) > 100 µM | GI50 (SNB-75 CNS) 15.1 µM | GI50 (A549 NSCLC) 6.96 µM | GI50 (T-47D breast) > 100 µM | GI50 (SN12C renal) 3.26 µM | GI50 (SF-295 CNS) 440 nM | GI50 (SK-MEL-28 melanoma) > 100 µM | GI50 (SNB-19 CNS) 22.8 µM | GI50 (SW-620 colon) 25.9 µM | GI50 (OVCAR-3 ovarian) > 100 µM | GI50 (CAKI-1 renal) 5.89 µM | GI50 (MCF7 breast) 701 nM | GI50 (UACC-257 melanoma) > 100 µM | GI50 (UO-31 renal) 6.5 µM | GI50 (TK-10 renal) > 100 µM | GI50 (COLO 205 colon) > 100 µM | GI50 (HCT-15 colon) > 100 µM | GI50 (HCC-2998 colon) > 100 µM | GI50 (NCI-H226 lung) > 100 µM | GI50 (MOLT-4 leukemia) 5.07 µM | GI50 (UACC-62 melanoma) > 100 µM | GI50 (HT29 colon) > 100 µM | GI50 (MDA-MB-435) > 100 µM | GI50 (OVCAR-8 ovarian) > 100 µM | GI50 (SK-MEL-5 melanoma) > 100 µM | GI50 (K-562 leukemia) > 100 µM | GI50 (A498 renal) 28.6 µM | GI50 (MDA-MB-231 breast) > 100 µM | GI50 (M14 melanoma) 4.19 µM | GI50 (U251 CNS) 1650 nM | GI50 (HOP-62 NSCLC) 5.81 µM | GI50 (HS 578T breast) > 100 µM | GI50 (LOX IMVI melanoma) 4.75 µM | GI50 (HCT-116 colon) > 80.4 µM | GI50 (RXF 393 renal) 25.9 µM | GI50 (NCI-H522 lung) > 100 µM | GI50 (DU-145 prostate) 3.59 µM | GI50 (IGROV1 ovarian) 74.1 µM
> 100 µM: TGI (RPMI-8226 leukemia) | TGI (NCI-H460 lung) | TGI (NCI-H23 lung) | TGI (OVCAR-5 ovarian) | TGI (OVCAR-4 ovarian) | TGI (KM12 colon) | TGI (SK-MEL-2 melanoma) | TGI (NCI/ADR-RES ovarian) | TGI (SF-268 CNS) | TGI (BT-549 breast) | TGI (ACHN renal) | TGI (SK-OV-3 ovarian) | TGI (786-0 renal) | TGI (HL-60(TB) leukemia) | TGI (SF-539 CNS) | TGI (PC-3 prostate) | TGI (HOP-92 NSCLC) | TGI (CCRF-CEM leukemia) | TGI (MALME-3M melanoma) | TGI (SNB-75 CNS) | TGI (A549 NSCLC) | TGI (T-47D breast) | TGI (SN12C renal) | TGI (SK-MEL-28 melanoma) | TGI (SNB-19 CNS) | TGI (SW-620 colon) | TGI (OVCAR-3 ovarian) | TGI (CAKI-1 renal) | TGI (MCF7 breast) | TGI (UACC-257 melanoma) | TGI (UO-31 renal) | TGI (TK-10 renal) | TGI (SR leukemia) | TGI (COLO 205 colon) | TGI (HCT-15 colon) | TGI (HCC-2998 colon) | TGI (NCI-H226 lung) | TGI (MOLT-4 leukemia) | TGI (UACC-62 melanoma) | TGI (HT29 colon) | TGI (MDA-MB-435) | TGI (OVCAR-8 ovarian) | TGI (SK-MEL-5 melanoma) | TGI (K-562 leukemia) | TGI (A498 renal) | TGI (MDA-MB-231 breast) | TGI (M14 melanoma) | TGI (U251 CNS) | TGI (HOP-62 NSCLC) | TGI (HS 578T breast) | TGI (LOX IMVI melanoma) | TGI (HCT-116 colon) | TGI (RXF 393 renal) | TGI (NCI-H522 lung) | TGI (DU-145 prostate) | TGI (IGROV1 ovarian)
> 19.9 µM: TGI (SF-295 CNS)
